Assay results taken from patent publication US5719130A, “Anthracycline derivative having a trifluoromethylated sugar” (Zaidan Hojin Biseibutsu Kagaku Kenkyu Kai, priority 1994, dated 1998).
Converted amounts (≈) assume the structure as drawn.

Legend:
Leukemia L-1210 cells = experiment: Antitumor activity against leukemia L-1210 in CDF1 mice, 60-day observation (Test Example 1); assay type: in vivo, mouse; conditions: for % Increase in life-span (T/C, %): 9 days, 60 d observation, '>' = at least one of four mice survived 60 days
Procedure: Thus, to evaluate the antitumor effects of the new compounds of this invention against experimental tumors in animals, CDF1 mice (four mice per group) were intraperitoneally transplanted with cells of Leukemia L-1210 at an amount of 1×10^5 cells/mouse. Since an elapsed time of 24 hours from the transplantation of the leukemia cells, a test compound according to this invention was administered intraperitoneally to the mice under test for 9 consecutive days once per day. […] While, mice of the control group (the untreated group) were administered with only physiological saline after the transplantation of the L-1210 cells. During the observation period, the numbers of the surviving mice in the treated group and in the control group were counted, and the mean survival days of mice in the treated group and in the control group were then calculated. From the mean survival day (C) of the untreated mice of the control group and the mean survival day (T) of the treated mice of the treated group, there were evaluated percentages (%) of the increase in the life-span of the treated mice, as T/C %. For a comparison purpose, 7-O-(2,6-dideoxy-2-fluoro-α-L-talopyranosyl)daunomycinone (abbreviation: FT-DM); 7-O-(2,6-dideoxy-2-fluoro-α-L-talopyranosyl)adriamycinone (abbreviation: FT-ADM); daunomycin and adriamycin were also tested in the same manner as above. Incidentally, the mean survival day of mice of the control group (the untreated group) was amounting to 8 to 9 days, and the mean survival day of mice of the comparative groups having received the administration of adriamycin was varying dependently on the dosage of adriamycin.

[1] = human, in vivo; cited from earlier work
[2] = tested on: adriamycin-resistant P388 cells (P388/ADR); experiment: In vitro inhibition of growth of adriamycin-resistant P388 cells, 72 hours (Test Example 3); assay type: cell-based, mouse; conditions: Mus musculus; P388/ADR, 72 hours
Procedure: (§1) Furthermore, in order to estimate the antitumor activities of Compound (a) and Compound (b) of this invention represented by the general formula (I), as well as the adriamycinone derivative represented by the formula (II) (namely, Compound (c) of this invention), some "in vitro" tests for inhibiting proliferation of cancer cells were conducted as shown below.
(§2) The above-mentioned Compound (a), Compound (b) or Compound (c) according to this invention were added at varying concentrations to mouse leukemia, P388 cells or adriamycin-resistant P388 cells (P388/ADR) which had been incubated in test tubes containing an appropriate culture medium. The incubation of the tumor cells were then continued for 72 hours from the addition of the test compound, and determination was made to evaluate such concentrations of the test compound which could inhibit the growth of the leukemia cells by 50% (namely, IC50' ng/ml). FT-DM, FT-ADM and adriamycin (as the hydrochloride) were used as comparative compounds and were tested in the same manner as above.

P388 cells = experiment: In vitro inhibition of growth of P388 cells, 72 hours (Test Example 3); assay type: cell-based, mouse; conditions: Mus musculus; P388, 72 hours; read-out: IC50
Procedure: as §1, §2

| IC50 [2] [µg/mL] | IC50 (P388 cells) [µg/mL] | SMILES | % Increase in life-span (T/C, %) (Leukemia L-1210 cells; 0.15 mg/kg/day i.p.) [%] | % Increase in life-span (T/C, %) (Leukemia L-1210 cells; 0.3 mg/kg/day i.p.) [%] | % Increase in life-span (T/C, %) (Leukemia L-1210 cells; 0.6 mg/kg/day i.p.) [%] | % Increase in life-span (T/C, %) (Leukemia L-1210 cells; 1.25 mg/kg/day i.p.) [%] | % Increase in life-span (T/C, %) (Leukemia L-1210 cells; 2.5 mg/kg/day i.p.) [%] | % Increase in life-span (T/C, %) (Leukemia L-1210 cells; 5 mg/kg/day i.p.) [%] | development of toxicity (in words) (Leukemia L-1210 cells; 2.5 to 5 mg/kg/day for daunomycin, adriamycin, 0.3 to 1.25 mg/kg/day for Compound (b), low dosages for formula (I)) | serious side-effects (in words) [1] |
| --- | --- | --- | --- | --- | --- | --- | --- | --- | --- | --- |
| – | – | COc1cccc2c1C(=O)c1c(O)c3c(c(O)c1C2=O)C[C@@](O)(C(C)=O)C[C@@H]3O[C@H]1C[C@H](N)[C@H](O)[C@H](C)O1 [Daunomycin, daunomycin] | 132 | 112 | 145 | 158 | 171 | 138 | accompanied by development of toxicity | serious side-effects such as leukocytopenia, alopecia, myocardiopathy and others |
| 0.0928 (≈ 0.165 µM) | 0.0034 (≈ 0.00604 µM) | COc1cccc2c1C(=O)c1c(O)c3c(c(O)c1C2=O)C[C@@](O)(C(=O)CO)C[C@@H]3O[C@@H]1O[C@@H](C)[C@@H](O)[C@@H](O)[C@H]1F [FT-ADM, 7-O-(2,6-dideoxy-2-fluoro-α-L-talopyranosyl)adriamycinone] | 127 | 182 | 185 | 275 | > 352 | > 740 | – | – |
| 0.15 (≈ 0.274 µM) | 0.033 (≈ 0.0604 µM) | COc1cccc2c1C(=O)c1c(O)c3c(c(O)c1C2=O)C[C@@](O)(C(C)=O)C[C@@H]3O[C@@H]1O[C@@H](C)[C@@H](O)[C@@H](O)[C@H]1F [FT-DM, 7-O-(2,6-dideoxy-2-fluoro-α-L-talopyranosyl)daunomycinone] | 105 | 105 | 125 | 171 | 217 | 184 | – | – |
